Laboratory results: ChEMBL document CHEMBL4680155, “One-pot synthesis and molecular docking of some new spiropyranindol-2-one derivatives as immunomodulatory agents and in vitro antimicrobial potential with DNA gyrase inhibitor” (Eur J Med Chem, 2020)
≈ marks a conversion by molar mass, not a printed value.

Columns and labels:
Escherichia coli [1] = assay: Antibacterial activity against multidrug resistant Escherichia coli ATCC BAA-196 assessed as reduction in bacterial growth incubated for 1 day by paper disk diffusion method; format: functional; settings: ATCC BAA-196, 24 h
Escherichia coli [2] = assay: Bactericidal activity against Escherichia coli ATCC BAA-196 incubated for 24 hrs followed by transferring to freshly prepared broth medium and measured after 24 hrs by broth microdilution assay; format: functional; settings: time 48 hrs
Staphylococcus aureus [3] = assay: Bactericidal activity against Staphylococcus aureus ATCC 33591 incubated for 24 hrs followed by transferring to freshly prepared broth medium and measured after 24 hrs by broth microdilution assay; format: functional; settings: time 48 hrs
Staphylococcus aureus [4] = assay: Antibacterial activity against multidrug resistant Staphylococcus aureus ATCC 33591 assessed as diameter of inhibition zone at 0.5 mg/ml incubated for 24 hrs by agar diffusion method; format: functional; settings: read-out: DIZ
Staphylococcus aureus [5] = assay: Antibacterial activity against multidrug resistant Staphylococcus aureus ATCC 43300 assessed as reduction in bacterial growth incubated for 1 day by paper disk diffusion method; format: functional; settings: ATCC 43300, 24 h
Staphylococcus aureus [6] = assay: Bactericidal activity against Staphylococcus aureus ATCC 43300 incubated for 24 hrs followed by transferring to freshly prepared broth medium and measured after 24 hrs by broth microdilution assay; format: functional; settings: time 48 hrs
Pseudomonas aeruginosa [7] = assay: Antibacterial activity against multidrug resistant Pseudomonas aeruginosa ATCC BAA-2111 assessed as diameter of inhibition zone at 0.5 mg/ml incubated for 24 hrs by agar diffusion method; format: functional; settings: read-out: DIZ
Pseudomonas aeruginosa [8] = assay: Antibacterial activity against multidrug resistant Pseudomonas aeruginosa ATCC BAA-2111 assessed as reduction in bacterial growth incubated for 1 day by paper disk diffusion method; format: functional; settings: ATCC BAA-2111, 24 h
Staphylococcus aureus [9] = assay: Antibacterial activity against multidrug resistant Staphylococcus aureus ATCC 33591 assessed as reduction in bacterial growth incubated for 1 day by paper disk diffusion method; format: functional; settings: ATCC 33591, 24 h
Pseudomonas aeruginosa [10] = assay: Bactericidal activity against Pseudomonas aeruginosa ATCC BAA-2111 incubated for 24 hrs followed by transferring to freshly prepared broth medium and measured after 24 hrs by broth microdilution assay; format: functional; settings: time 48 hrs
Staphylococcus aureus [11] = assay: Antibacterial activity against multidrug resistant Staphylococcus aureus ATCC 43300 assessed as diameter of inhibition zone at 0.5 mg/ml incubated for 24 hrs by agar diffusion method; format: functional; settings: read-out: DIZ
Escherichia coli [12] = assay: Antibacterial activity against multidrug resistant Escherichia coli ATCC BAA-196 assessed as diameter of inhibition zone at 0.5 mg/ml incubated for 24 hrs by agar diffusion method; format: functional; settings: read-out: DIZ
Staphylococcus aureus [13] = assay: Antibacterial activity against Staphylococcus aureus ATCC 29213 assessed as reduction in bacterial growth incubated for 1 day by paper disk diffusion method; format: functional; settings: ATCC 29213, 24 h
Enterococcus faecalis [14] = assay: Bactericidal activity against Enterococcus faecalis ATCC 29212 incubated for 24 hrs followed by transferring to freshly prepared broth medium and measured after 24 hrs by broth microdilution assay; format: functional; settings: time 48 hrs
Salmonella typhimurium [15] = assay: Antibacterial activity against Salmonella typhi ATCC 6539 assessed as diameter of inhibition zone at 0.5 mg/ml incubated for 24 hrs by agar diffusion method; format: functional, Salmonella enterica subsp. enterica serovar Typhimurium; settings: Salmonella enterica, read-out: DIZ
Staphylococcus aureus [16] = assay: Bactericidal activity against Staphylococcus aureus ATCC 29213 incubated for 24 hrs followed by transferring to freshly prepared broth medium and measured after 24 hrs by broth microdilution assay; format: functional; settings: time 48 hrs
Escherichia coli [17] = assay: Antibacterial activity against Escherichia coli ATCC 25922 assessed as diameter of inhibition zone at 0.5 mg/ml incubated for 24 hrs by agar diffusion method; format: functional; settings: read-out: DIZ
DNA gyrase = DNA gyrase (Staphylococcus aureus, UniProt P0A0K8+P20831); assay: Inhibition of Staphylococcus aureus DNA gyrase using relaxed pBR322 DNA as substrate incubated for 45 mins by agarose gel electrophoresis method; format: protein-complex assay
Chain of DNA gyrase (P0A0K8 whole entry): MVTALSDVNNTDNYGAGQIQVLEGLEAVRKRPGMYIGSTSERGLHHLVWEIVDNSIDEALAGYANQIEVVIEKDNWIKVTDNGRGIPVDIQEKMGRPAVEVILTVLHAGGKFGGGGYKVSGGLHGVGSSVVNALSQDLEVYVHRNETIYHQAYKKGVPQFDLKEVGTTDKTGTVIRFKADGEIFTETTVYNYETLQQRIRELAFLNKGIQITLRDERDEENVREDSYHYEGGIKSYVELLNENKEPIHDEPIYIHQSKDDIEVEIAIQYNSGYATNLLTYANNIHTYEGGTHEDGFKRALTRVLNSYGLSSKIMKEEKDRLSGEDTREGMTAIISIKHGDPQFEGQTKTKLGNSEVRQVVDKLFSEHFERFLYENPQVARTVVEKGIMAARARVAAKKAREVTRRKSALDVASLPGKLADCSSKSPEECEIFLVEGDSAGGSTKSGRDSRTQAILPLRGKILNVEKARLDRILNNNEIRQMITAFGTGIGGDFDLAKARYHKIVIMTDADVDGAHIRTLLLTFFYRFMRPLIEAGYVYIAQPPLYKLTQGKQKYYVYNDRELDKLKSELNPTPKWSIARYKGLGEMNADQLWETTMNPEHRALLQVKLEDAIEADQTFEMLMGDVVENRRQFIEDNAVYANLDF
Chain of DNA gyrase (P20831 whole entry): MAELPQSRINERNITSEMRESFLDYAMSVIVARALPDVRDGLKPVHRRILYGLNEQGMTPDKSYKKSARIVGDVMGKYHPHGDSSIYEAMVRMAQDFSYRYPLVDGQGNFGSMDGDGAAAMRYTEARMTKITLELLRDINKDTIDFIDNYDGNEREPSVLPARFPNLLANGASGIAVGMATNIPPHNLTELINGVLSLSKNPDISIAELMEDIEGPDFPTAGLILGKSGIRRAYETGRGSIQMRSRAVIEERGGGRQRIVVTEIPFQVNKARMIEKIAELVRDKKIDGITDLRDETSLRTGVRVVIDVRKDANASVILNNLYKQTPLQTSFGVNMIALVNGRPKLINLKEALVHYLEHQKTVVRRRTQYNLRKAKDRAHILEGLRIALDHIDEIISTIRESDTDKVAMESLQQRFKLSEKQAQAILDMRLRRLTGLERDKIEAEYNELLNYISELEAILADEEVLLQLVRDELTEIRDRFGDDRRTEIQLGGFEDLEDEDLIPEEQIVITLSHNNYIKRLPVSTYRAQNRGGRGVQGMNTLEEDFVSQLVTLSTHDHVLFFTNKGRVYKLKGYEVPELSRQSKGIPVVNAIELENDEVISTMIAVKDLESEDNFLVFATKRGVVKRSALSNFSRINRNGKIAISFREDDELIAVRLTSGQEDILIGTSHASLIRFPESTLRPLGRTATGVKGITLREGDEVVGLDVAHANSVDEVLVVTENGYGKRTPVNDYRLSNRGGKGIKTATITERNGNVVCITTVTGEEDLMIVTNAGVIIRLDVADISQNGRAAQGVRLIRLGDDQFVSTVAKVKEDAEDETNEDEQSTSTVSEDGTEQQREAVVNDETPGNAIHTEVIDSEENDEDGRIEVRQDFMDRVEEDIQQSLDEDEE

Candida albicans [18] = assay: Fungicidal activity against Candida albicans ATCC 10231 incubated for 24 hrs followed by transferring to freshly prepared broth medium and measured after 24 hrs by broth microdilution assay; format: functional; settings: time 48 hrs
Salmonella typhimurium [19] = assay: Antibacterial activity against Salmonella typhi ATCC 6539 assessed as reduction in bacterial growth incubated for 1 day by paper disk diffusion method; format: functional, Salmonella enterica subsp. enterica serovar Typhimurium; settings: Salmonella enterica, ATCC 6539, 24 h
Enterococcus faecalis [20] = assay: Antibacterial activity against Enterococcus faecalis ATCC 29212 assessed as reduction in bacterial growth incubated for 1 day by paper disk diffusion method; format: functional; settings: ATCC 29212, 24 h
Salmonella typhimurium [21] = assay: Bactericidal activity against Salmonella typhi ATCC 6539 incubated for 24 hrs followed by transferring to freshly prepared broth medium and measured after 24 hrs by broth microdilution assay; format: functional, Salmonella enterica subsp. enterica serovar […]; settings: Salmonella enterica, time 48 hrs
Staphylococcus aureus [22] = assay: Antibacterial activity against Staphylococcus aureus ATCC 29213 assessed as diameter of inhibition zone at 0.5 mg/ml incubated for 24 hrs by agar diffusion method; format: functional; settings: read-out: DIZ
Escherichia coli [23] = assay: Bactericidal activity against Escherichia coli ATCC 25922 incubated for 24 hrs followed by transferring to freshly prepared broth medium and measured after 24 hrs by broth microdilution assay; format: functional; settings: time 48 hrs
Candida albicans [24] = assay: Antifungal activity against Candida albicans ATCC 10231 assessed as diameter of inhibition zone at 0.5 mg/ml incubated for 24 hrs by agar diffusion method; format: functional; settings: read-out: DIZ
Escherichia coli [25] = assay: Antibacterial activity against Escherichia coli ATCC 25922 assessed as reduction in bacterial growth incubated for 1 day by paper disk diffusion method; format: functional; settings: ATCC 25922, 24 h
Enterococcus faecalis [26] = assay: Antibacterial activity against Enterococcus faecalis ATCC 29212 assessed as diameter of inhibition zone at 0.5 mg/ml incubated for 24 hrs by agar diffusion method; format: functional; settings: read-out: DIZ
Neutrophil = assay: Immunomodulatory activity in human neutrophils infected with bacteria assessed as increase in bacterial killing by measuring reduced NBT incubated for 30 mins by NBT dye based spectrophotometry; format: functional; parameters: concentration or dose not given beside the values; settings: 0.5 h
Aspergillus brasiliensis [27] = assay: Antifungal activity against Aspergillus brasiliensis ATCC 16404 assessed as diameter of inhibition zone at 0.5 mg/ml incubated for 72 hrs by agar diffusion method; format: functional; settings: read-out: DIZ
Candida albicans [28] = assay: Antifungal activity against Candida albicans ATCC 10231 assessed as reduction in bacterial growth incubated for 1 day by paper disk diffusion method; format: functional; settings: ATCC 10231, 24 h
Aspergillus brasiliensis [29] = assay: Fungicidal activity against Aspergillus brasiliensis ATCC 16404 incubated for 72 hrs followed by transferring to freshly prepared broth medium and measured after 24 hrs by broth microdilution assay; format: functional; settings: time 96 hrs
Aspergillus brasiliensis [30] = assay: Antifungal activity against Aspergillus brasiliensis ATCC 16404 assessed as reduction in bacterial growth incubated for 3 days by paper disk diffusion method; format: functional; settings: ATCC 16404, 72 h, time 3 day

SMILES | MIC (Escherichia coli [1]) [µg/mL] | MBC (Escherichia coli [2]) [µg/mL] | MBC (Staphylococcus aureus [3]) [µg/mL] | zone of inhibition at 500 µg/mL (Staphylococcus aureus [4]) [mm] | MIC (Staphylococcus aureus [5]) [µg/mL] | MBC (Staphylococcus aureus [6]) [µg/mL] | zone of inhibition at 500 µg/mL (Pseudomonas aeruginosa [7]) [mm] | MIC (Pseudomonas aeruginosa [8]) [µg/mL] | MIC (Staphylococcus aureus [9]) [µg/mL] | MBC (Pseudomonas aeruginosa [10]) [µg/mL] | zone of inhibition at 500 µg/mL (Staphylococcus aureus [11]) [mm] | zone of inhibition at 500 µg/mL (Escherichia coli [12]) [mm] | MIC (Staphylococcus aureus [13]) [µg/mL] | MBC (Enterococcus faecalis [14]) [µg/mL] | zone of inhibition at 500 µg/mL (Salmonella typhimurium [15]) [mm] | MBC (Staphylococcus aureus [16]) [µg/mL] | zone of inhibition at 500 µg/mL (Escherichia coli [17]) [mm] | IC50 (DNA gyrase) [µM] | MFC (Candida albicans [18]) [µg/mL] | MIC (Salmonella typhimurium [19]) [µg/mL] | further results
CCn1cc(C(=O)O)c(=O)c2cc(F)c(N3CCNCC3)cc21 [NORFLOXACIN] | 1.57 (≈ 4.92 µM) | 3.53 (≈ 11.1 µM) | 1.56 (≈ 4.89 µM) | 26 | 1.25 (≈ 3.91 µM) | 2.81 (≈ 8.8 µM) | 24 | 3.13 (≈ 9.8 µM) | 0.78 (≈ 2.44 µM) | 4.69 (≈ 14.7 µM) | 25 | 27 |  |  |  |  |  |  |  |  | 
CC(=O)C1=C(C)OC(N)=C(C#N)C12C(=O)Nc1ccc(S(=O)(=O)N3CCOCC3)cc12 (stereo not drawn) | 6.25 (≈ 14.1 µM) | 12.5 (≈ 28.1 µM) | 9.37 (≈ 21.1 µM) | 20 | 7.81 (≈ 17.6 µM) | 12.5 (≈ 28.1 µM) | 18 | 8.88 (≈ 20 µM) | 7.81 (≈ 17.6 µM) | 17.8 (≈ 40 µM) | 21 | 22 | 71.1 (≈ 160 µM) | 26.6 (≈ 60 µM) | 19 | 85.3 (≈ 192 µM) | 21 | 25.1 | 15.6 (≈ 35.1 µM) | 31.2 (≈ 70.3 µM) | MIC (Enterococcus faecalis [20]): 17.8 µg/mL (≈ 40 µM); MBC (Salmonella typhimurium [21]): 50 µg/mL (≈ 112 µM); zone of inhibition at 500 µg/mL (Staphylococcus aureus [22]): 22 mm; MBC (Escherichia coli [23]): 23.4 µg/mL (≈ 52.7 µM); zone of inhibition at 500 µg/mL (Candida albicans [24]): 21 mm; MIC (Escherichia coli [25]): 15.6 µg/mL (≈ 35.1 µM); zone of inhibition at 500 µg/mL (Enterococcus faecalis [26]): 20 mm; Activity (Neutrophil): 112.9%; zone of inhibition at 500 µg/mL (Aspergillus brasiliensis [27]): 14 mm; MIC (Candida albicans [28]): 7.81 µg/mL (≈ 17.6 µM); MFC (Aspergillus brasiliensis [29]): 150 µg/mL (≈ 337 µM); MIC (Aspergillus brasiliensis [30]): 125 µg/mL (≈ 281 µM)
CCOC(=O)C1=C(N)OC(c2ccccc2)=C(C(=O)OCC)C12C(=O)Nc1ccc(S(=O)(=O)N3CCCCC3)cc12 (stereo not drawn) | 4.44 (≈ 7.63 µM) | 5.32 (≈ 9.15 µM) | 9.37 (≈ 16.1 µM) | 22 | 6.25 (≈ 10.7 µM) | 10 (≈ 17.2 µM) | 22 | 5.2 (≈ 8.94 µM) | 6.25 (≈ 10.7 µM) | 8.84 (≈ 15.2 µM) | 22 | 23 | 88.3 (≈ 152 µM) | 15.6 (≈ 26.9 µM) | 21 | 150 (≈ 258 µM) | 23 | 23.2 | 21.9 (≈ 37.6 µM) | 15.6 (≈ 26.9 µM) | MIC (Enterococcus faecalis [20]): 7.81 µg/mL (≈ 13.4 µM); MBC (Salmonella typhimurium [21]): 21.9 µg/mL (≈ 37.6 µM); zone of inhibition at 500 µg/mL (Staphylococcus aureus [22]): 21 mm; MBC (Escherichia coli [23]): 11.5 µg/mL (≈ 19.8 µM); zone of inhibition at 500 µg/mL (Candida albicans [24]): 21 mm; MIC (Escherichia coli [25]): 8.88 µg/mL (≈ 15.3 µM); zone of inhibition at 500 µg/mL (Enterococcus faecalis [26]): 22 mm; Activity (Neutrophil): 139.3%; zone of inhibition at 500 µg/mL (Aspergillus brasiliensis [27]): 17 mm; MIC (Candida albicans [28]): 15.6 µg/mL (≈ 26.9 µM); MFC (Aspergillus brasiliensis [29]): 115 µg/mL (≈ 197 µM); MIC (Aspergillus brasiliensis [30]): 71.8 µg/mL (≈ 123 µM)
CCOC(=O)C1=C(N)OC(C)=C(C(C)=O)C12C(=O)Nc1ccc(S(=O)(=O)N3CCOCC3)cc12 (stereo not drawn) | 3.9 (≈ 7.93 µM) | 7.8 (≈ 15.9 µM) | 5.07 (≈ 10.3 µM) | 23 | 4.44 (≈ 9.03 µM) | 6.66 (≈ 13.5 µM) | 20 | 7.81 (≈ 15.9 µM) | 3.9 (≈ 7.93 µM) | 12.5 (≈ 25.4 µM) | 23 | 24 | 62.5 (≈ 127 µM) | 17.6 (≈ 35.7 µM) | 20 | 100 (≈ 203 µM) | 21 | 25.1 | 15.6 (≈ 31.8 µM) | 31.2 (≈ 63.6 µM) | MIC (Enterococcus faecalis [20]): 12.5 µg/mL (≈ 25.4 µM); MBC (Salmonella typhimurium [21]): 53.1 µg/mL (≈ 108 µM); zone of inhibition at 500 µg/mL (Staphylococcus aureus [22]): 23 mm; MBC (Escherichia coli [23]): 20.3 µg/mL (≈ 41.3 µM); zone of inhibition at 500 µg/mL (Candida albicans [24]): 20 mm; MIC (Escherichia coli [25]): 15.6 µg/mL (≈ 31.8 µM); zone of inhibition at 500 µg/mL (Enterococcus faecalis [26]): 19 mm; Activity (Neutrophil): 136.7%; zone of inhibition at 500 µg/mL (Aspergillus brasiliensis [27]): 16 mm; MIC (Candida albicans [28]): 8.88 µg/mL (≈ 18.1 µM); MFC (Aspergillus brasiliensis [29]): 177 µg/mL (≈ 359 µM); MIC (Aspergillus brasiliensis [30]): 88.3 µg/mL (≈ 180 µM)
